Results published in patent US11351151B2, “Compound having anticancer activity and preparation method and application” (3D Medicines (Beijing) Co., Ltd., priority 2016, dated 2022).

Tests used:
Test in all cases: Cell proliferation assay (Alamar Blue)
Format in all cases: cell-based
MFM-223 = conditions: Homo sapiens, 144 h; MFM-223 tumor cell line; 6 days
Experimental: (§1) 1. Instruments and Materials • Thermo 311 CO2 incubator; Haier biosafety cabinet; Molecular Devices microplate reader; Xiangyi brand L530 desktop low speed centrifuge; Olympus IX51 inverted fluorescence microscope, DMEM, RPMI 1640, MEM, DMEM/F12 1:1 medium, Fetal bovine serum, 0.25% trypsin solution, phosphate buffer (Thermo Fisher Shanghai Co., Ltd.); sigma dimethyl sulfoxide (DMSO), resazurin; 54 commercial tumor cell lines (including 26 liver cancer cell lines). Experimental drugs: compounds 1-12 and active drug Linifanib; chemotherapeutic drug Doxorubicin (HY-15142; Shanghai Qianyuan Biomedical Technology Co., Ltd.).
(§2) 2. Experimental Methods • 2.1 Cultivation of different cell lines • 54 cell lines were cultured in a culture medium containing fetal bovine serum and placed in a 5% CO 2 incubator at 37° C. for incubation. The cells were all grown in an adherent state, and the growth was observed under an inverted microscope, and subculture was performed when the cell confluence rate reached 80%-90%. The proportion and quantity of passage were determined by experimental needs. The ratio of subculture of this cell line was generally 1:2^˜1:3. • 2.2 inhibition effect on the proliferation of different tumor cell lines • Cell test: 54 cell lines in logarithmic growth phase were inoculated in 96-well culture plates at 500^˜1×10^4/well (the optimal seeding density of each cell line was determined in pre-experiment), After incubating at 37° C. for 4 h in a 5% CO2 humidification incubator, added 10 μL of compounds 1-12 or Linifanib to each well, and tested 9 drug concentration gradients for each compound (diluted from the highest concentration of the test by 3.16 times). The solubility of each compound was different at a starting concentration of 30 or 100 μM, respectively. The QC reference compound Doxorubicin was added simultaneously to each cell line test, and the final drug concentrations were 10, 3.16, 1, 0.31, 0.1, 0.03, 0.01, 0.003, and 0.001 μM, respectively. In addition, a positive control group (100% inhibition) and a negative control group (0% inhibition) were set at the same time. The drug group was repeated for 2 wells per concentration, and the positive control group and the negative control group were repeated for 6 wells. After the culture was continued for 6 days in the incubator, AlamarBlue test operation was followed; • AlamarBlue test procedure: Incubated with 10 μL of AlamarBlue reagent per well for 1-4 h, shook for 1-2 min, MD microplate reader EX: 560 nm, EM: 590 nm wavelength to measure fluorescence, recorded the results, calculated the cell inhibition rate of the compound of the invention. Cell inhibition rate (%)=(A0% inhibition−A administration)/(A0% inhibition−A100% inhibition)×100%, and then using the method of nonlinear regression using Graph Pad Prism 5.0 or MATILAB software (usually using four parameters) to graph and obtain a drug dose response curve to obtain an IC50 value of the compound of the present invention acting on a cancer cell line.

JHH1 = conditions: 144 h; JHH1 liver cancer cell line; 6 days
Experimental: as §1, §2

MG63 = conditions: Homo sapiens, MG-63, 144 h; MG63 tumor cell line; 6 days
Experimental: as §1, §2

SNU449 = conditions: Homo sapiens, SNU-449, 144 h; SNU449 liver cancer cell line; 6 days
Experimental: as §1, §2

DU145 = conditions: Homo sapiens, DU-145, 144 h; DU145 tumor cell line; 6 days
Experimental: as §1, §2

SNU387 = conditions: Homo sapiens, SNU-387, 144 h; SNU387 liver cancer cell line; 6 days
Experimental: as §1, §2

NCl-H1703 = conditions: 144 h; NCl-H1703 (lung cancer cells); 6 days
Experimental: as §1, §2

HuTu80 = conditions: Homo sapiens, 144 h; HuTu80 tumor cell line; 6 days
Experimental: as §1, §2

HUH1 = conditions: Homo sapiens, HuH-1, 144 h; HUH1 liver cancer cell line; 6 days
Experimental: as §1, §2

JHH2 = conditions: JHH-2, 144 h; JHH2 liver cancer cell line; 6 days
Experimental: as §1, §2

HT1080 = conditions: Homo sapiens, HT-1080, 144 h; HT1080 tumor cell line; 6 days
Experimental: as §1, §2

JHH5 = conditions: 144 h; JHH5 liver cancer cell line; 6 days
Experimental: as §1, §2

SW620 = conditions: Homo sapiens, SW-620, 144 h; SW620 tumor cell line; 6 days
Experimental: as §1, §2

NCl-H716 = conditions: 144 h; NCl-H716 tumor cell line; 6 days
Experimental: as §1, §2

SNU354 = conditions: Homo sapiens, SNU-354, 144 h; SNU354 liver cancer cell line; 6 days
Experimental: as §1, §2

HUH7 = conditions: Homo sapiens, Huh-7, 144 h; HUH7 liver cancer cell line; 6 days
Experimental: as §1, §2

LNCAP-clone-FGC = conditions: Homo sapiens, 144 h; LNCAP-clone-FGC tumor cell line; 6 days
Experimental: as §1, §2

T.T = conditions: Homo sapiens, TT, 144 h; T.T tumor cell line; 6 days
Experimental: as §1, §2

SNU761 = conditions: 144 h; SNU761 liver cancer cell line; 6 days
Experimental: as §1, §2

SNU475 = conditions: Homo sapiens, SNU-475, 144 h; SNU475 liver cancer cell line; 6 days
Experimental: as §1, §2

TE-6 = conditions: Homo sapiens, 144 h; TE-6 tumor cell line; 6 days
Experimental: as §1, §2

NCl-H1648 = conditions: 144 h; NCl-H1648 tumor cell line; 6 days
Experimental: as §1, §2

Alexander cells = conditions: 144 h, liver cancer cell line, 6 days
Experimental: as §1, §2

| IC50 (SNU449) [µM] | IC50 (DU145) [µM] | IC50 (SNU387) [µM] | IC50 (NCl-H1703) [µM] | IC50 (HUH1) [µM] | IC50 (HT1080) [µM] | IC50 (SW620) [µM] | IC50 (NCl-H716) [µM] | IC50 (SNU354) [µM] | IC50 (HUH7) [µM] | IC50 (LNCAP-clone-FGC) [µM] | IC50 (SNU761) [µM] | IC50 (SNU475) [µM] | Structure (SMILES) | IC50 (MFM-223) [µM] | IC50 (JHH1) [µM] | IC50 (MG63) [µM] | IC50 (HuTu80) [µM] | IC50 (JHH2) [µM] | IC50 (JHH5) [µM] | IC50 (T.T) [µM] | other results |
| --- | --- | --- | --- | --- | --- | --- | --- | --- | --- | --- | --- | --- | --- | --- | --- | --- | --- | --- | --- | --- | --- |
| 5.21 | 2.76 | 12.8 | 0.04 | 4.42 | 13.2 | 2.79 | 1.82 | 3.91 | 3.22 | 5.47 | 9.53 | 4.85 | Cc1ccc(F)c(NC(=O)Nc2ccc(-c3cccc4c3c(N)nn4C(=O)C[C@H](N)C(=O)N[C@@H](CCC(=O)O)C(=O)O)cc2)c1 [Compound 1] | 8.89 | 8.15 | 7.69 | 3.17 | 28.9 | 15.2 | 5.22 | IC50 (TE-6): 4.29 µM; IC50 (NCl-H1648): 6.89 µM; IC50 (Alexander cells): 5.5 µM |
| > 100 | 38 | > 100 | 1.59 | 66.8 | > 100 | 71.4 | 43.8 | 78.8 | 60 | 75.3 | 85 | 81.3 | Cc1ccc(F)c(NC(=O)Nc2ccc(-c3cccc4c3c(N)nn4C(=O)CCCCCNC(=O)C[C@H](N)C(=O)N[C@@H](CCC(=O)O)C(=O)O)cc2)c1 [Compound 4] | 38 | > 100 | 94.5 | 38.2 | > 100 | > 100 | > 100 | IC50 (TE-6): > 100 µM; IC50 (NCl-H1648): > 100 µM; IC50 (Alexander cells): 97.2 µM |
| > 30 | > 30 | 30.3 | 0.05 | > 30 | > 30 | > 30 | > 30 | > 30 | > 30 | > 30 | > 30 | > 30 | Cc1ccc(F)c(NC(=O)Nc2ccc(-c3cccc4c3c(N)nn4C(=O)CCCCCCCCCCCNC(=O)C[C@H](N)C(=O)O)cc2)c1 [Compound 12] | > 30 | > 30 | > 30 | > 30 | > 30 | > 30 | > 30 | IC50 (TE-6): > 30 µM; IC50 (NCl-H1648): > 30 µM; IC50 (Alexander cells): > 30 µM |
| 31.6 | 17.2 | > 100 | 0.18 | 21.2 | > 100 | 21.9 | 8.45 | 30.2 | 22.1 | 26.7 | > 100 | 40.7 | Cc1ccc(F)c(NC(=O)Nc2ccc(-c3cccc4c3c(N)nn4C(=O)CCCCCCCCCCCNC(=O)C[C@H](N)C(=O)N[C@@H](CCC(=O)O)C(=O)O)cc2)c1 [Compound 7] | 24.1 | > 100 | 73 | 21.1 | > 100 | > 100 | > 100 | IC50 (TE-6): 74.3 µM; IC50 (NCl-H1648): > 100 µM; IC50 (Alexander cells): 98 µM |
| 10.2 | 5.01 | 12.3 | 0.02 | 3.25 | 6.4 | 2.78 | 4.1 | 4.58 | 1.67 | 11.3 | 8.98 | 5.37 | Cc1ccc(F)c(NC(=O)Nc2ccc(-c3cccc4[nH]nc(N)c34)cc2)c1 [Linifanib, reference compound] | 1.72 | 12.2 | 1.78 | 1.85 | 29.5 | 10 | 4.86 | IC50 (TE-6): 4.09 µM; IC50 (NCl-H1648): 7.17 µM; IC50 (Alexander cells): 4.09 µM |

| Structure (SMILES) | IC50 (SNU449) [µM] | IC50 (DU145) [µM] | IC50 (SNU387) [µM] | IC50 (NCl-H1703) [µM] | IC50 (HUH1) [µM] | IC50 (HT1080) [µM] | IC50 (SW620) [µM] | IC50 (NCl-H716) [µM] | IC50 (SNU354) [µM] | IC50 (HUH7) [µM] | IC50 (LNCAP-clone-FGC) [µM] | IC50 (SNU761) [µM] | IC50 (SNU475) [µM] | IC50 (MFM-223) [µM] | IC50 (JHH1) [µM] | IC50 (MG63) [µM] | IC50 (HuTu80) [µM] | IC50 (JHH2) [µM] | IC50 (JHH5) [µM] | IC50 (T.T) [µM] | other results |
| --- | --- | --- | --- | --- | --- | --- | --- | --- | --- | --- | --- | --- | --- | --- | --- | --- | --- | --- | --- | --- | --- |
| Cc1ccc(F)c(NC(=O)Nc2ccc(-c3cccc4c3c(N)nn4C(=O)CCCCCNC(=O)C[C@H](N)C(=O)N[C@@H](CCC(=O)N[C@@H](CCC(=O)N[C@@H](CCC(=O)N[C@@H](CCC(=O)N[C@@H](CCC(=O)N[C@@H](CCC(=O)N[C@@H](CCC(=O)N[C@@H](CCC(=O)N[C@@H](CCC(=O)O)C(=O)O)C(=O)O)C(=O)O)C(=O)O)C(=O)O)C(=O)O)C(=O)O)C(=O)O)C(=O)O)cc2)c1 [Compound 6] | > 100 | 63.3 | > 100 | 7.16 | > 100 | > 100 | > 100 | 92.1 | > 100 | 92.1 | > 100 | > 100 | > 100 | 72.2 | > 100 | > 100 | 61 | > 100 | > 100 | > 100 | IC50 (TE-6): > 100 µM; IC50 (NCl-H1648): > 100 µM; IC50 (Alexander cells): > 100 µM |
| Cc1ccc(F)c(NC(=O)Nc2ccc(-c3cccc4c3c(N)nn4C(=O)CCCCCCCCCCCNC(=O)C[C@H](N)C(=O)N[C@@H](CCC(=O)N[C@@H](CCC(=O)N[C@@H](CCC(=O)N[C@@H](CCC(=O)N[C@@H](CCC(=O)N[C@@H](CCC(=O)N[C@@H](CCC(=O)N[C@@H](CCC(=O)N[C@@H](CCC(=O)O)C(=O)O)C(=O)O)C(=O)O)C(=O)O)C(=O)O)C(=O)O)C(=O)O)C(=O)O)C(=O)O)cc2)c1 [Compound 9] | 90 | 34.5 | > 100 | 0.33 | 52.4 | > 100 | 66.7 | 43.1 | 67.3 | 30.3 | > 100 | > 100 | 77.8 | 38.3 | > 100 | > 100 | 73.5 | > 100 | > 100 | > 100 | IC50 (TE-6): > 100 µM; IC50 (NCl-H1648): > 100 µM; IC50 (Alexander cells): > 100 µM |
